Each molecule was assayed against T1, BTK (Homo sapiens, UniProt Q06187) (assay: BTK cell degradation in Ramos cells (total BTK ELISA)). Conditions: 16 h incubation, FastScan total BTK ELISA.
T1 construct: endogenous in cells; host or cells: Ramos cells
Assay type: cell-based
Summary of the method: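 Ramos cells were treated for 16 h with compounds (7 doses, 5-fold dilution series, 0.1% DMSO). Total BTK in cell lysates was quantified by sandwich ELISA with TMB read-out at 450 nm.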

T1 sequence (Q06187 whole entry): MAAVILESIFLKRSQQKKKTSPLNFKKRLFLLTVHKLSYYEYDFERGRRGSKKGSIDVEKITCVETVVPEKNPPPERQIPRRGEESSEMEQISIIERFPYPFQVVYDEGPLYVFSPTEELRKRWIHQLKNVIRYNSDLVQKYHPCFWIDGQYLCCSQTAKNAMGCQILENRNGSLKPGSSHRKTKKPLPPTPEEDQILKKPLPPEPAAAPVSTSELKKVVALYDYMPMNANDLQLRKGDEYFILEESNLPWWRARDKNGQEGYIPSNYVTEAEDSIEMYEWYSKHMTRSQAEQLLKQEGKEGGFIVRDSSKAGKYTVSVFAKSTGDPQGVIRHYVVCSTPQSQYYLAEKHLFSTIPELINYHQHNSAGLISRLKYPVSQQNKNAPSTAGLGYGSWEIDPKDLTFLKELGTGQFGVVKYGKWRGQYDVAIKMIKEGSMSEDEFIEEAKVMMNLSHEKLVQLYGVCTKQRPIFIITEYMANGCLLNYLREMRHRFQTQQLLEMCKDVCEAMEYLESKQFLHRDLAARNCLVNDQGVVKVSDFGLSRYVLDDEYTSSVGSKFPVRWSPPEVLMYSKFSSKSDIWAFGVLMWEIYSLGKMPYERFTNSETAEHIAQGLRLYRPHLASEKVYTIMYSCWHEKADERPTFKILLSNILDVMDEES

SMILES | DC50
NC(=O)c1c(-c2ccc(Oc3ccccc3)cc2)nn2c1NCC[C@H]2C1CCN(C(=O)CCN2CCN(c3ccc(CNC(=O)CCN4C(=O)CCC(N5Cc6c(N)cccc6C5=O)C4=O)cc3)CC2)CC1 (stereo partly drawn) [Example 56, (7S)-7-(1-(3-(4-(4-((3-(3-(4-amino-1-oxoisoindolin-2-yl)-2,6-dioxopiperidin-1-yl)propanamido)methyl)phenyl)piperazin-1-yl)propanoyl)piperidin-4-yl)-2-(4-phenoxyphenyl)-4,5,6,7-tetrahydropyrazolo[1,5-a]pyrimidine-3-carboxamide] | 2360 nM
NC(=O)c1c(-c2ccc(Oc3ccccc3)cc2)nn2c1NCC[C@H]2C1CCN(C(=O)CCc2ccc(NC(=O)CNc3ccc4c(c3)C(=O)N(C3CCC(=O)NC3=O)C4=O)cc2)CC1 (stereo partly drawn) [Example 57, (7S)-7-(1-(3-(4-(2-((2-(2,6-dioxopiperidin-3-yl)-1,3-dioxoisoindolin-5-yl)amino)acetamido)phenyl)propanoyl)piperidin-4-yl)-2-(4-phenoxyphenyl)-4,5,6,7-tetrahydropyrazolo[1,5-a] pyrimidine-3-carboxamide] | > 10000 nM
NC(=O)c1c(-c2ccc(Oc3ccccc3)cc2)nn2c1NCC[C@H]2C1CCN(C(=O)CCN2CCC(CN3CCN(c4ccc5c(c4)C(=O)N(C4CCC(=O)NC4=O)C5=O)CC3)CC2)CC1 (stereo partly drawn) [Example 95, (7S)-7-(1-(3-(4-((4-(2-(2,6-dioxopiperidin-3-yl)-1,3-dioxoisoindolin-5-yl)piperazin-1-yl)methyl)piperidin-1-yl)propanoyl)piperidin-4-yl)-2-(4-phenoxyphenyl)-4,5,6,7-tetrahydropyrazolo[1,5-a]pyrimidine-3-carboxamide] | 1680 nM
NC(=O)c1c(-c2ccc(Oc3ccccc3)cc2)nn2c1NCC[C@H]2C1CCN(C(=O)CCCC2CCC(N3CCN(c4ccc5c(c4)C(=O)N(C4CCC(=O)NC4=O)C5=O)CC3)CC2)CC1 (stereo partly drawn) [Example 148, (7S)-7-(1-(4-(4-(4-(2-(2,6-dioxopiperidin-3-yl)-1,3-dioxoisoindolin-5-yl)piperazin-1-yl)cyclohexyl)butanoyl)piperidin-4-yl)-2-(4-phenoxyphenyl)-4,5,6,7-tetrahydropyrazolo[1,5-a]pyrimidine-3-carboxamide] | 205 nM
NC(=O)c1c(-c2ccc(Oc3ccccc3)cc2)nn2c1NCC[C@H]2C1CCN(C(=O)CCCN2CCN(C(=O)CNc3ccc4c(c3)C(=O)N(C3CCC(=O)NC3=O)C4=O)CC2)CC1 (stereo partly drawn) [Example 152, (7S)-7-(1-(4-(4-((2-(2,6-dioxopiperidin-3-yl)-1,3-dioxoisoindolin-5-yl)glycyl)piperazin-1-yl)butanoyl)piperidin-4-yl)-2-(4-phenoxyphenyl)-4,5,6,7-tetrahydropyrazolo[1,5-a]pyrimidine-3-carboxamide] | 35 nM
NC(=O)c1c(-c2ccc(Oc3ccccc3)cc2)nn2c1NCC[C@H]2C1CCN(C(=O)CCNc2cccc3c2C(=O)N(C2CCC(=O)NC2=O)C3=O)CC1 (stereo partly drawn) [Example 154, (7S)-7-(1-(3-((2-(2,6-dioxopiperidin-3-yl)-1,3-dioxoisoindolin-4-yl)amino)propanoyl)piperidin-4-yl)-2-(4-phenoxyphenyl)-4,5,6,7-tetrahydropyrazolo[1,5-a]pyrimidine-3-carboxamide] | 637 nM
NC(=O)c1c(-c2ccc(Oc3ccccc3)cc2)nn2c1NCC[C@H]2C1CCN(C(=O)CCN2CCC(N3CCN(c4ccc5c(c4)C(=O)N(C4CCC(=O)NC4=O)C5=O)CC3)CC2)CC1 (stereo partly drawn) [Example 156, (7S)-7-(1-(3-(4-(4-(2-(2,6-dioxopiperidin-3-yl)-1,3-dioxoisoindolin-5-yl)piperazin-1-yl)piperidin-1-yl)propanoyl)piperidin-4-yl)-2-(4-phenoxyphenyl)-4,5,6,7-tetrahydropyrazolo[1,5-a]pyrimidine-3-carboxamide] | 1680 nM

Now from value to molecule:

DC50 | SMILES
28 nM | NC(=O)c1c(-c2ccc(Oc3ccccc3)cc2)nn2c1NCC[C@H]2C1CCN(C(=O)CCCc2ccc(NC(=O)CNc3ccc4c(c3)C(=O)N(C3CCC(=O)NC3=O)C4=O)cc2)CC1 (stereo partly drawn) [Example 58, (7S)-7-(1-(4-(4-(2-((2-(2,6-dioxopiperidin-3-yl)-1,3-dioxoisoindolin-5-yl)amino)acetamido)phenyl)butanoyl)piperidin-4-yl)-2-(4-phenoxyphenyl)-4,5,6,7-tetrahydropyrazolo[1,5-a] pyrimidine-3-carboxamide]
2.9 nM | NC(=O)c1c(-c2ccc(Oc3ccccc3)cc2)nn2c1NCC[C@H]2C1CCN(C(=O)CCN2CCN(C(=O)CNc3ccc4c(c3)C(=O)N(C3CCC(=O)NC3=O)C4=O)CC2)CC1 (stereo partly drawn) [Example 63, (7S)-7-(1-(3-(4-((2-(2,6-dioxopiperidin-3-yl)-1,3-dioxoisoindolin-5-yl)glycyl)piperazin-1-yl)propanoyl)piperidin-4-yl)-2-(4-phenoxyphenyl)-4,5,6,7-tetrahydropyrazolo[1,5-a]pyrimidine-3-carboxamide]
35 nM | CN(CCC(=O)N1CCC([C@@H]2CCNc3c(C(N)=O)c(-c4ccc(Oc5ccccc5)cc4)nn32)CC1)CC1CCN(c2ccc3c(c2)C(=O)N(C2CCC(=O)NC2=O)C3=O)CC1 (stereo partly drawn) [Example 64, (7S)-7-(1-(3-(((1-(2-(2,6-dioxopiperidin-3-yl)-1,3-dioxoisoindolin-5-yl)piperidin-4-yl)methyl)(methyl)amino)propanoyl)piperidin-4-yl)-2-(4-phenoxyphenyl)-4,5,6,7-tetrahydropyrazolo[1,5-a]pyrimidine-3-carboxamide]
17 nM | NC(=O)c1c(-c2ccc(Oc3ccccc3)cc2)nn2c1NCC[C@H]2C1CCN(C(=O)CCC2CCC(N3CCN(c4ccc5c(c4)C(=O)N(C4CCC(=O)NC4=O)C5=O)CC3)CC2)CC1 (stereo partly drawn) [Example 151, (7S)-7-(1-(3-(4-(4-(2-(2,6-dioxopiperidin-3-yl)-1,3-dioxoisoindolin-5-yl)piperazin-1-yl)cyclohexyl)propanoyl)piperidin-4-yl)-2-(4-phenoxyphenyl)-4,5,6,7-tetrahydropyrazolo[1,5-a] pyrimidine-3-carboxamide]
7.2 nM | CN(CC1CCN(C(=O)c2ccc(N3CCC(=O)NC3=O)cc2)CC1)C1CC(C(=O)N2CCC([C@@H]3CCNc4c(C(N)=O)c(-c5ccc(Oc6ccccc6)cc5)nn43)CC2)C1 (stereo partly drawn) [Example 155, (S)-7-(1-(3-(((1-(4-(2,4-dioxotetrahydropyrimidin-1(2H)-yl)benzoyl)piperidin-4-yl)methyl)(methyl)amino)cyclobutane-1-carbonyl)piperidin-4-yl)-2-(4-phenoxyphenyl)-4,5,6,7-tetrahydropyrazolo[1,5-a]pyrimidine-3-carboxamide]
